Test results: ChEMBL document CHEMBL5360634, “Turonicin A, an Antifungal Linear Polyene Polyketide from an Australian Streptomyces sp” (J Nat Prod, 2023)
Values after ≈ are worked out from the molar mass of the structure shown.

What was measured:
[1] = Cytotoxicity against human NFF cells assessed as inhibition of cell growth measured after 48 hrs by resazurin staining based analysis; format: toxicity
[2] = Antiproliferative activity against mouse NS-1 cells assessed as inhibition of cell growth measured after 48 hrs by resazurin staining based analysis; format: functional; conditions: NS1, 48 h
Staphylococcus aureus = test: Antibacterial activity against Staphylococcus aureus assessed as inhibition of bacterial growth measured after 48 hrs by resazurin staining based analysis; format: functional
Saccharomyces cerevisiae = test: Antifungal activity against Saccharomyces cerevisiae assessed as reduction in fungal growth measured after 48 hrs by resazurin staining based analysis; format: functional
Bacillus subtilis = test: Antibacterial activity against Bacillus subtilis ATCC 6633 assessed as inhibition of bacterial growth measured after 48 hrs by resazurin staining based analysis; format: functional
Tritrichomonas foetus = test: Antiprotozoal activity against Tritrichomonas foetus KV-1 strain assessed as inhibition of protozoal growth measured after 72 hrs under anaerobic conditions; format: functional, organism-based; conditions: KV-1, 72 h
Candida albicans = test: Antifungal activity against Candida albicans ATCC 10231 assessed as reduction in fungal growth measured after 48 hrs by resazurin staining based analysis; format: functional

| MIC (Staphylococcus aureus) [µg/mL] | MIC (Saccharomyces cerevisiae) [µg/mL] | MIC (Bacillus subtilis) [µg/mL] | MIC (Candida albicans) [µg/mL] | Compound | IC50 at 48 h [1] [µM] | IC50 [2] [µM] | IC50 (Tritrichomonas foetus) [µM] |
| --- | --- | --- | --- | --- | --- | --- | --- |
| 1.5 (≈ 1.29 µM) | 0.0002 (≈ 0.000171 µM) | 0.097 (≈ 0.0832 µM) | 0.0008 (≈ 0.000686 µM) | C\C(=C/C=C/C=C/C=C/C=C/CC/C=C/[C@H](C)[C@H](O)[C@@H](C)[C@H](O)/C=C/C=C/C=C/C=C/C=C/C[C@H](O)[C@H](C)C(=O)C[C@H](O)C[C@H](O)C[C@H](O)/C=C/C[C@@H](O)C[C@H](O)C[C@@H](O)C[C@H](O)/C=C/C[C@H](O)/C=C/C[C@H](O)C[C@H](O)CCCN)C(=O)O | > 80 | > 80 | > 80 |
| 0.39 (≈ 0.343 µM) | 0.0008 (≈ 0.000703 µM) | 0.097 (≈ 0.0852 µM) | 0.0031 (≈ 0.00272 µM) | C\C(=C/C=C/C=C/C=C/CC/C=C/[C@H](C)[C@H](O)[C@@H](C)[C@H](O)/C=C/C=C/C=C/C=C/C=C/C[C@H](O)[C@H](C)C(=O)C[C@H](O)C[C@H](O)C[C@H](O)/C=C/C[C@@H](O)C[C@H](O)C[C@@H](O)C[C@H](O)/C=C/C[C@H](O)/C=C/C[C@H](O)CCCNC(=N)N)C(=O)O | > 80 | 44 | > 80 |
| – | 0.4 (≈ 1.16 µM) | – | 0.1 (≈ 0.29 µM) | Clc1ccccc1C(c1ccccc1)(c1ccccc1)n1ccnc1 [CLOTRIMAZOLE] | – | – | – |

The next lines start with the molecule.

| Compound | MIC (Staphylococcus aureus) [µg/mL] | MIC (Saccharomyces cerevisiae) [µg/mL] | MIC (Bacillus subtilis) [µg/mL] | MIC (Candida albicans) [µg/mL] | IC50 at 48 h [1] [µM] | IC50 [2] [µM] | IC50 (Tritrichomonas foetus) [µM] |
| --- | --- | --- | --- | --- | --- | --- | --- |
| CSC[S@+]([O-])C[C@H](CO)NC(=O)/C=C/c1c(C)[nH]c(=O)[nH]c1=O | – | – | – | – | 1.2 | 0.4 | – |
| C\C(=C/C=C/C=C/C=C/CC/C=C/[C@H](C)[C@H](O)[C@@H](C)[C@H](O)/C=C/C=C/C=C/C=C/C=C/C[C@H](O)[C@H](C)C(=O)C[C@H](O)C[C@H](O)C[C@H](O)/C=C/C[C@@H](O)C[C@H](O)C[C@@H](O)C[C@H](O)/C=C/C[C@H](O)/C=C/C[C@H](O)C[C@H](O)CCCN)C(=O)O | 3.1 (≈ 2.72 µM) | 0.0004 (≈ 0.000351 µM) | 0.39 (≈ 0.342 µM) | 0.0015 (≈ 0.00132 µM) | > 80 | > 80 | > 80 |
| Cc1ncc([N+](=O)[O-])n1CCO [METRONIDAZOLE] | – | – | – | – | – | – | 0.9 |
| CN[C@H](CC(C)C)C(=O)N[C@H]1C(=O)N[C@@H](CC(N)=O)C(=O)N[C@H]2C(=O)N[C@H]3C(=O)N[C@H](C(=O)N[C@H](C(=O)O)c4cc(O)cc(O)c4-c4cc3ccc4O)[C@H](O)c3ccc(c(Cl)c3)Oc3cc2cc(c3O[C@@H]2O[C@H](CO)[C@@H](O)[C@H](O)[C@H]2O[C@H]2C[C@](C)(N)[C@H](O)[C@H](C)O2)Oc2ccc(cc2Cl)[C@H]1O [VANCOMYCIN] | 0.8 (≈ 0.552 µM) | – | 0.05 (≈ 0.0345 µM) | – | – | – | – |
